The CheMixHub viscosity set

Assay: xn = mol fraction of the nth substance listed

[F-].[K+] + O
Details	viscosity [mPa·s]
298.15 K, 100 kPa, x1 = 0.02	1.005
298.15 K, 100 kPa, x1 = 0.03	1.133
298.15 K, 100 kPa, x1 = 0.07	1.53
298.15 K, 100 kPa, x1 = 0.1	2.16
298.15 K, 100 kPa, x1 = 0.2	3.23
303.15 K, 101 kPa, x1 = 0.002	0.808
303.15 K, 101 kPa, x1 = 0.005	0.828
303.15 K, 101 kPa, x1 = 0.009	0.849
308.15 K, 101 kPa, x1 = 0.002	0.735
308.15 K, 101 kPa, x1 = 0.005	0.754
308.15 K, 101 kPa, x1 = 0.009	0.778
313.15 K, 101 kPa, x1 = 0.005	0.687
313.15 K, 101 kPa, x1 = 0.009	0.709
318.15 K, 101 kPa, x1 = 0.005	0.632
318.15 K, 101 kPa, x1 = 0.009	0.651
323.15 K, 100 kPa, x1 = 0.02	0.5955
323.15 K, 100 kPa, x1 = 0.03	0.7039
323.15 K, 100 kPa, x1 = 0.07	0.9529
323.15 K, 100 kPa, x1 = 0.1	1.35
323.15 K, 100 kPa, x1 = 0.2	2.021

CCOC(=O)C(Cl)(Cl)Cl + O=C(O)C(Cl)(Cl)Cl
323.15 K, 101 kPa
Details	viscosity [mPa·s]
x1 = 0.2358	3.172
x1 = 0.4086	2.346
x1 = 0.5988	1.742
x1 = 0.7928	1.334

CCCC[N+](CCCC)(CCCC)CCCC.[Br-] + OCC(O)CO
viscosity [mPa·s], x1 = 0.2
Details	296.97 K	298 K	302.02 K	307.2 K	312.13 K	317.31 K	322.23 K
101 kPa	892.4	–	671.4	484.4	331.4	238	195.5
101.33 kPa	–	333.9	–	–	–	–	–

CCCC[N+](CCCC)(CCCC)CCCC.[Br-] + OCCO
Details	viscosity [mPa·s]
293.15 K, 101 kPa, x1 = 0.333	187.3
298 K, 100 kPa, x2 = 0.75	98
298 K, 101.33 kPa, x1 = 0.2	41.51
298.15 K, 100 kPa, x1 = 0.333	188
298.15 K, 101 kPa, x1 = 0.2	69
303.15 K, 100 kPa, x1 = 0.2	161.7
303.15 K, 101 kPa, x1 = 0.2	53.8
303.15 K, 101 kPa, x1 = 0.333	124
308 K, 100 kPa, x2 = 0.75	57
308.15 K, 101 kPa, x1 = 0.2	42.6
313.15 K, 100 kPa, x1 = 0.2	102.1
313.15 K, 101 kPa, x1 = 0.2	31.2
313.15 K, 101 kPa, x1 = 0.333	84.3
318 K, 100 kPa, x2 = 0.75	35
318.15 K, 101 kPa, x1 = 0.2	27.8
323.15 K, 100 kPa, x1 = 0.2	61.85
323.15 K, 101 kPa, x1 = 0.2	21.7
323.15 K, 101 kPa, x1 = 0.333	58.7

CCCC[N+](CCCC)(CCCC)CCCC.[Br-] + OCCOCCO
viscosity [mPa·s]
Details	293.15 K	303.15 K	313.15 K	323.15 K
100 kPa, x1 = 0.2	–	265.6	165.5	92.86
101 kPa, x2 = 0.667	203.9	150.6	87.28	57.39

CCCC[N+](CCCC)(CCCC)CCCC.[Br-] + OCCOCCOCCO
100 kPa, x1 = 0.2
Details	viscosity [mPa·s]
303.15 K	279.6
313.15 K	176.9
323.15 K	101.6
